System: S. aureus
Test: Vapor-phase triclosan delivery to model wound (inoculated Petri dishes), bacterial growth after incubation
Assay type: cell-based
Conditions: for Bacterial Growth after 37° C. incubation; Exposure to wound treatment system: 3 hr / Bacterial Growth after 37° C. incubation; Exposure to wound treatment system: Additional 17 hr: inoculated
Protocol: The experimental data were obtained with a model air-activated heating elements (7 Hour Hand Warmers, Grabber, Grand Rapids, Mich.) surrounding a model wound represented by inoculated Petri dishes with 5 ml of 45C TSA agar containing about 6 log CFU/ml S. aureus. For testing, from 1 to 8 triclosan strips, each containing 9 mg of triclosan, were positioned on heating elements in proximity to inoculated Petri dishes. The assembly was covered creating an enclosed compartment around the inoculated Petri dishes, with triclosan patches within thusly formed compartment on the heating elements but not in contact with the inoculated Petri dishes. The inoculated Petri dishes were taken out after 3 hr and 17 hour exposure at ambient temperature (of which heating packs provided about 7 hours of heat) and incubated at 37° C. for 24 hr to allow the bacterial colonies, if any, to grow and be evaluated. Controls tested included the same model without any heating elements; heating elements in a system with no triclosan; no heating, no triclosan for confirming inoculation and bacterial growth, no heating no triclosan no inoculation for confirming agar was not contaminated.

With `Oc1cc(Cl)ccc1Oc1ccc(Cl)cc1Cl` [triclosan] the “Bacterial Growth after 37° C. incubation; Exposure to wound treatment system: 3 hr” value (from here on “Bacterial Growth after 37° C. incubation … 3 hr”) (0 heating elements (no heat), 1 triclosan patch, 3 hr exposure) was “Full growth”, the “Bacterial Growth after 37° C. incubation; Exposure to wound treatment system: Additional 17 hr” value (from here on “Bacterial Growth … Additional 17 hr”) (0 heating elements (no heat), 1 triclosan patch, 17 hr exposure) was “Full” and the “Bacterial Growth after 37° C. incubation … 3 hr” value (0 heating elements (no heat), 2 triclosan patches, 3 hr exposure) was “Full growth”. For the same molecule, the “Bacterial Growth … Additional 17 hr” value (0 heating elements (no heat), 2 triclosan patches, 17 hr exposure) was “Full”, the “Bacterial Growth after 37° C. incubation … 3 hr” value (0 heating elements (no heat), 4 triclosan patches, 3 hr exposure) was “Partial” and the “Bacterial Growth … Additional 17 hr” value (0 heating elements (no heat), 4 triclosan patches, 17 hr exposure) was “Minimal”. For the same molecule, the “Bacterial Growth after 37° C. incubation … 3 hr” value (0 heating elements (no heat), 8 triclosan patches, 3 hr exposure) was “partial growth”, the “Bacterial Growth … Additional 17 hr” value (0 heating elements (no heat), 8 triclosan patches, 17 hr exposure) was “full antibacterial effect and NONE” and the “Bacterial Growth after 37° C. incubation … 3 hr” value (4 heating elements, 1 triclosan patch, 3 hr exposure) was “NONE”. The “Bacterial Growth … Additional 17 hr” value (4 heating elements, 1 triclosan patch, 17 hr exposure) was “NONE”, the “Bacterial Growth after 37° C. incubation … 3 hr” value (4 heating elements, 2 triclosan patches, 3 hr exposure (tests 3 and 4)) was “NONE” and the “Bacterial Growth … Additional 17 hr” value (4 heating elements, 2 triclosan patches, 17 hr exposure (tests 3 and 4)) was “NONE”. For the same molecule, the “Bacterial Growth after 37° C. incubation … 3 hr” value (4 heating elements, 4 triclosan patches, 3 hr exposure) was “NONE”, the “Bacterial Growth … Additional 17 hr” value (4 heating elements, 4 triclosan patches, 17 hr exposure) was “NONE” and the “Bacterial Growth after 37° C. incubation … 3 hr” value (4 heating elements, 8 triclosan patches (9 mg each), 3 hr exposure) was “NONE”. The “Bacterial Growth … Additional 17 hr” value (4 heating elements, 8 triclosan patches (9 mg each), 17 hr exposure) was “NONE”, the “bactericidal effect on S. aureus with vapor transfer of triclosan” value (in presence of heat elements, 1 strip of triclosan) was “full bactericidal effect” and the “inhibition of bacterial growth” value (tests #1-4, 8: 4 heating elements, from 1 to 8 triclosan patches) was “full inhibition of bacterial growth”. For the same molecule, the antibacterial effect (without heat elements, most tests) was “lack of antibacterial effect”.
